Results taken from ChEMBL document CHEMBL4229547, “Design, synthesis and biological mechanisms research on 1,2,3-triazole derivatives of Jiyuan Oridonin A” (Bioorg Med Chem, 2018).
pIC50: −log10 of the molar value. The source made the active and inactive calls. No cut-off for these calls is given here.

Key:
[1] = tested on: MGC-803; test: Cell cycle arrest in human MGC803 cells assessed as accumulation at S phase at 3 ug/ml after 48 hrs by propidium iodide staining-based flow cytometric method (reference value: 32.5 +/- 2.25%); assay type: functional
[2] = tested on: MGC-803; test: Induction of apoptosis in human MGC803 cells assessed as decrease in ratio of Bcl-2/Bax at 1.5 to 6 ug/ml after 48 hrs by Western blot method; assay type: functional, cell-based
[3] = tested on: MGC-803; test: Cell cycle arrest in human MGC803 cells assessed as accumulation at S phase at 3 ug/ml after 48 hrs in presence of N-acetyl cysteine by propidium iodide staining-based flow cytometric method (reference value: 32.5 +/- 2.25%); assay type: functional
[4] = tested on: MGC-803; test: Cell cycle arrest in human MGC803 cells assessed as accumulation at G0/G1 phase at 3 ug/ml after 48 hrs in presence of N-acetyl cysteine by propidium iodide staining-based flow cytometric method (reference value: 52.5 +/- 3.71%); assay type: functional
[5] = tested on: MGC-803; test: Induction of reactive oxygen species formation in human MGC803 cells at 3 ug/ml after 5 hrs by DCFH-DA staining-based flow cytometry (reference value: 7.1%); assay type: functional
[6] = tested on: MCF7; test: Antiproliferative activity against human MCF7 cells after 48 hrs by MTT assay; assay type: functional, cell-based; details: MCF7, 48 h
[7] = tested on: MGC-803; test: Induction of apoptosis in human MGC803 cells assessed as early apoptotic cells at 3 ug/ml by annexin V-FITC/propidium iodide staining-based flow cytometric method (reference value: 1.3%); assay type: functional
[8] = tested on: MGC-803; test: Cell cycle arrest in human MGC803 cells assessed as accumulation at G0/G1 phase at 1.5 ug/ml after 48 hrs by propidium iodide staining-based flow cytometric method (reference value: 52.5 +/- 3.71%); assay type: functional
[9] = tested on: MGC-803; test: Cell cycle arrest in human MGC803 cells assessed as accumulation at G0/G1 phase at 3 ug/ml after 48 hrs by propidium iodide staining-based flow cytometric method (reference value: 52.5 +/- 3.71%); assay type: functional
[10] = tested on: MGC-803; test: Induction of apoptosis in human MGC803 cells assessed as necrotic cells at 3 ug/ml in presence of N-acetyl cysteine by annexin V-FITC/propidium iodide staining-based flow cytometric method (reference value: 1%); assay type: functional
[11] = tested on: MGC-803; test: Induction of apoptosis in human MGC803 cells assessed as necrotic cells at 1.5 ug/ml by annexin V-FITC/propidium iodide staining-based flow cytometric method (reference value: 1%); assay type: functional
[12] = tested on: MGC-803; test: Induction of apoptosis in human MGC803 cells assessed as upregulation of cleaved caspase-9 levels after 48 hrs by Western blot method; assay type: functional, cell-based
[13] = tested on: MGC-803; test: Disruption of mitochondrial membrane potential in human MGC803 cells at 1.5 to 3 ug/ml after 24 hrs in presence of N-acetyl cysteine by JC1 staining-based fluorescence microscopic method; assay type: functional, cell-based
[14] = tested on: MGC-803; test: Antiproliferative activity against human MGC803 cells at 8 to 16 ug/ml after 48 hrs in presence of N-acetyl cysteine by MTT assay; assay type: functional, cell-based
[15] = tested on: MGC-803; test: Induction of apoptosis in human MGC803 cells assessed as downregulation of survivin levels at 1.5 to 6 ug/ml after 48 hrs by Western blot method; assay type: functional, cell-based
[16] = tested on: MGC-803; test: Induction of apoptosis in human MGC803 cells assessed as late apoptotic cells at 1.5 ug/ml by annexin V-FITC/propidium iodide staining-based flow cytometric method (reference value: 0.1%); assay type: functional
[17] = tested on: MGC-803; test: Induction of apoptosis in human MGC803 cells assessed as decrease in cell number after 24 hrs by inverted microscopic method; assay type: functional, cell-based
[18] = tested on: MGC-803; test: Induction of apoptosis in human MGC803 cells assessed as late apoptotic cells at 3 ug/ml by annexin V-FITC/propidium iodide staining-based flow cytometric method (reference value: 0.1%); assay type: functional
[19] = tested on: MGC-803; test: Induction of apoptosis in human MGC803 cells assessed as early apoptotic cells at 3 ug/ml in presence of N-acetyl cysteine by annexin V-FITC/propidium iodide staining-based flow cytometric method (reference value: 1.3%); assay type: functional
[20] = tested on: MGC-803; test: Cell cycle arrest in human MGC803 cells assessed as accumulation at G0/G1 phase at 1.5 ug/ml after 48 hrs in presence of N-acetyl cysteine by propidium iodide staining-based flow cytometric method (reference value: 52.5 +/- 3.71%); assay type: functional
[21] = tested on: MGC-803; test: Induction of apoptosis in human MGC803 cells assessed as increase in apoptotic bodies formation at 1.5 to 6 ug/ml after 24 hrs by Hoechst 33258 staining-based fluorescence microscopic method; assay type: functional, cell-based
[22] = tested on: EC9706; test: Antiproliferative activity against human EC9706 cells after 48 hrs by MTT assay; assay type: functional, cell-based; details: EC9706, 48 h
[23] = tested on: MGC-803; test: Induction of apoptosis in human MGC803 cells assessed as viable cells at 1.5 ug/ml by annexin V-FITC/propidium iodide staining-based flow cytometric method (reference value: 97.6%); assay type: functional; details: read-out: Activity
[24] = tested on: MGC-803; test: Induction of apoptosis in human MGC803 cells assessed as late apoptotic cells at 3 ug/ml in presence of N-acetyl cysteine by annexin V-FITC/propidium iodide staining-based flow cytometric method (reference value: 0.1%); assay type: functional
[25] = tested on: MGC-803; test: Cell cycle arrest in human MGC803 cells assessed as accumulation at G2/M phase at 1.5 ug/ml after 48 hrs in presence of N-acetyl cysteine by propidium iodide staining-based flow cytometric method (reference value: 17.2 +/- 1.35%); assay type: functional
[26] = tested on: MGC-803; test: Cell cycle arrest in human MGC803 cells assessed as accumulation at S phase at 1.5 ug/ml after 48 hrs by propidium iodide staining-based flow cytometric method (reference value: 32.5 +/- 2.25%); assay type: functional
[27] = tested on: MGC-803; test: Antiproliferative activity against human MGC803 cells after 48 hrs by MTT assay; assay type: functional, cell-based; details: MGC-803, 48 h
[28] = tested on: MGC-803; test: Cell cycle arrest in human MGC803 cells assessed as accumulation at G2/M phase at 3 ug/ml after 48 hrs in presence of N-acetyl cysteine by propidium iodide staining-based flow cytometric method (reference value: 17.2 +/- 1.35%); assay type: functional
[29] = tested on: GES1; test: Antiproliferative activity against human GES-1 cells after 48 hrs by MTT assay; assay type: cell-based; details: GES1, 48 h
[30] = tested on: MGC-803; test: Induction of apoptosis in human MGC803 cells assessed as early apoptotic cells at 1.5 ug/ml by annexin V-FITC/propidium iodide staining-based flow cytometric method (reference value: 1.3%); assay type: functional
[31] = tested on: MGC-803; test: Antiproliferative activity against human MGC803 cells at 16 to 32 ug/ml after 48 hrs by MTT assay relative to control; assay type: functional
[32] = tested on: MGC-803; test: Cell cycle arrest in human MGC803 cells assessed as accumulation at G2/M phase at 1.5 ug/ml after 48 hrs by propidium iodide staining-based flow cytometric method (reference value: 17.2 +/- 1.35%); assay type: functional
[33] = tested on: MGC-803; test: Induction of apoptosis in human MGC803 cells assessed as viable cells at 3 ug/ml in presence of N-acetyl cysteine by annexin V-FITC/propidium iodide staining-based flow cytometric method (reference value: 97.6%); assay type: functional; details: read-out: Activity
[34] = tested on: MGC-803; test: Cell cycle arrest in human MGC803 cells assessed as accumulation at S phase at 1.5 ug/ml after 48 hrs in presence of N-acetyl cysteine by propidium iodide staining-based flow cytometric method (reference value: 32.5 +/- 2.25%); assay type: functional

C=C1C(=O)[C@]23[C@H](O)[C@H]1C[C@H](O)[C@H]2[C@]12CCCC(C)(C)[C@H]1C[C@H]3O[C@@H]2OCCc1cn(Cc2ccc(Cl)cc2)nn1
Activity [1]: 29.6% | Activity [2]: Active | Activity [3]: 33.2% | Activity [4]: 50.4% | Activity [5]: 24.8% | pIC50 [6]: 5.32 | Activity [7]: 60.3% | Activity [8]: 46.3% | Activity [9]: 30.5% | Activity [10]: 0.6% | Activity [11]: 0.5% | Activity [12]: Dose-dependent effect | Activity [13]: inactive | Activity [14]: inactive | Activity [15]: Active | Activity [16]: 0.3% | Activity [17]: Dose-dependent effect | Activity [18]: 1.1% | Activity [19]: 4.6% | Activity [20]: 55.4% | Activity [21]: Active | pIC50 [22]: 5.30 | viability at 1.5 µg/mL [23]: 91% | Activity [24]: 0% | Activity [25]: 16.1% | Activity [26]: 29.2% | pIC50 [27]: 5.60 | Activity [28]: 14.8% | pIC50 [29]: 4.54 | Activity [30]: 7.8% | inhibition (INH) [31]: 90% | Activity [32]: 26.7% | viability at 3 µg/mL [33]: 94% | Activity [34]: 29.1%
